# In US11858958B2, “Blank liposome with ginsenoside Rg3 or its analog as membrane materials and preparations and uses thereof” (Shanghai Ginsome Pharmatech Co., Ltd., priority 2018, dated 2024):
# Where “and” joins values, the source holds several entries; their conditions need not be identical. Identical values can stand only once.
# Legend:
# [1] = system: human breast cancer cell line (4T1); experiment: In vitro cytotoxicity studies (DTX groups); type: cell-based
# Experimental: For each concentration group, 4 replicates were set up. The whole experiment was independently repeated 3 times.
# The in vitro cytotoxicity was evaluated using human breast cancer cell line (4T1).
# [2] = system: in-situ glioma model (C6 cells); experiment: Survival curve and median survival day; type: in vivo, nude mice
# [3] = in words; cited from earlier work
# [4] = system: human gastric cancer cell (BGC-823); experiment: In vivo pharmacological efficacy assay, relative tumor volume; design: species or system nude mice
# Experimental: 2. In vivo pharmacological efficacy assay: A total of 72 subcutaneous tumor-bearing nude mice were randomerized into 8 groups (9 in each group), and intravenously injected with PBS solution (Control group,), Rg3, Rg3-blank, PTX-Cho-Lipo, Abraxane, PTX-Rg5-Gipo, PTX-Rg3-Gipo and PTX-Rh2-Gipo, via tail vein at a dose of 10 mg·kg^1. The changes of mice body weights in each group were recorded every 2 days, and the longest diameter and the shortest diameter of tumors were measured with vernier calipers. The tumor volume is calculated by the following formula: V=(dmax×dmin^2)/2, wherein dmin and dmax are respectively the shortest diameter and the longest diameter (mm) of the tumor; a relative tumor volume (RTV) is calculated according to the measurement results by the formula: RTV=TVn/TV0,
# wherein TVn is the volume of the tumor measured every 2 days, TV0 is the volume of the tumor measured at day zero (the administration day).
# rat C6 glioma cells = experiment: In vitro drug efficiency assay, survival rate of glioma cells; type: cell-based
# [5] = system: human breast cancer cell 4T1; experiment: In vivo drug efficacy assay, relative tumor volume (Rh2/PTX groups); design: species or system nude mice; details: 4T1, tail vein 30 mg/kg
# Experimental: To evaluate the drug efficacy in vivo, 45 subcutaneous tumor-bearing nude mice were randomized into 5 treatment groups (9 in each group) and intravenously injected with PBS solution (control group), ginsenoside Rh2 (Rh2 group), ginsenoside Rh2 blank liposome (Rh2-Blank group), conventional paclitaxel cholesterol liposome (PTX-Cho-Lipo group) and ginsenoside Rh2 paclitaxel liposome (PTX-Rh2-Gipo group) via tail vein at a dose of 30 mg/kg. The changes of body weights of mice in each group were recorded every 2 days, and the longest diameter and the shortest diameter of tumors were measured with vernier calipers. The tumor volume was calculated by the following formula: V=(dmax×dmin^2)/2, wherein dmin and dmax are respectively the shortest diameter and the longest diameter (mm) of the tumor; a relative tumor volume (RTV) was calculated according to the measurement results, by the formula: RTV=TVn/TV0, […], TV0 is the volume of the tumor measured at day zero (the administration day).
# [6] = system: human breast cancer cell line (4T1); experiment: In vitro drug efficacy assay, cell survival rate (Rh2/PTX groups)
# Experimental: Logarithmically growing tumor cells were collected and resuspended in DMEM complete medium supplemented with 10% fetal bovine serum, 100 U/ml penicillin and 100 μg/ml streptomycin to a final cell density of 4×10^4 cells/ml. Then, 200 μl cell suspension solution was seeded into each well of a 96-well plate (with a concentration of 8×10^3 cells/well) and the plate was cultured in a CO2 cell culture incubator at 37° C. […] The group without replacing DMEM complete medium by anti-cancer drug solution was used as negative control. For each concentration group, 4 replicates were set up. The whole experiment was independently repeated 3 times. The cells were continuously cultured in a CO2 cell culture incubator at 37° C. […] Then discarded the supernatant, added 150 μl DMSO into each well, and shaked the plate for 10 min. The absorbance was measured at 490 nm using a microplate reader (Tecan infinite M 200 TECAN, Switzerland). The cell survival rate is calculated according to the following formula:
structure (smiles),measurement,setting,value
"CC(=O)O[C@@]12CO[C@@H]1C[C@H](O)[C@@]1(C)C(=O)[C@H](O)C3=C(C)[C@@H](OC(=O)[C@H](O)[C@@H](NC(=O)OC(C)(C)C)c4ccccc4)C[C@@](O)([C@@H](OC(=O)c4ccccc4)[C@H]21)C3(C)C [DTX, docetaxel]",Cell viability(%),"[1]; 4T1, Concentration 3.84E−05 μg/ml",83.55%
same,Cell viability(%),"[1]; 4T1, Concentration 7.68E−06 μg/ml",86.66%
same,viability at 0.00019 µg/mL,"[1]; Homo sapiens, 4T1, Concentration 0.00019 μg/ml",72.5%
same,viability at 0.00096 µg/mL,"[1]; Homo sapiens, 4T1, Concentration 0.00096 μg/ml",61.6%
same,viability at 0.0048 µg/mL,"[1]; Homo sapiens, 4T1, Concentration 0.0048 μg/ml",50.9%
same,viability at 0.024 µg/mL,"[1]; Homo sapiens, 4T1, Concentration 0.024 μg/ml",49.9%
same,viability at 0.12 µg/mL,"[1]; Homo sapiens, 4T1, Concentration 0.12 μg/ml",46.3%
same,viability at 0.6 µg/mL,"[1]; Homo sapiens, 4T1, Concentration 0.6 μg/ml",48.9%
same,viability at 3 µg/mL,"[1]; Homo sapiens, 4T1, Concentration 3 μg/ml",51.9%
"CC(C)=CCC[C@](C)(O)[C@H]1CC[C@]2(C)[C@@H]1[C@H](O)C[C@@H]1[C@@]3(C)CC[C@H](O[C@@H]4O[C@H](CO)[C@@H](O)[C@H](O)[C@H]4O[C@@H]4O[C@H](CO)[C@@H](O)[C@H](O)[C@H]4O)C(C)(C)[C@@H]3CC[C@]12C [Rg3, Ginsenoside 20(S)-Rg3]",Median survial,[2]; tail vein 10 mg·kg^−1,29 days and 32 days
same,number of survived mice,"[2]; tail vein 10 mg·kg^−1, Time 12 d",10
same,number of survived mice,"[2]; tail vein 10 mg·kg^−1, Time 14 d",10
same,number of survived mice,"[2]; tail vein 10 mg·kg^−1, Time 16 d",9
same,number of survived mice,"[2]; tail vein 10 mg·kg^−1, Time 18 d",9
same,number of survived mice,"[2]; tail vein 10 mg·kg^−1, Time 20 d",8
same,number of survived mice,"[2]; tail vein 10 mg·kg^−1, Time 22 d",7
same,number of survived mice,"[2]; tail vein 10 mg·kg^−1, Time 24 d",7
same,number of survived mice,"[2]; tail vein 10 mg·kg^−1, Time 26 d",6
same,number of survived mice,"[2]; tail vein 10 mg·kg^−1, Time 28 d",5
same,number of survived mice,"[2]; tail vein 10 mg·kg^−1, Time 30 d",4
same,number of survived mice,"[2]; tail vein 10 mg·kg^−1, Time 32 d",4
same,number of survived mice,"[2]; tail vein 10 mg·kg^−1, Time 34 d",3
same,number of survived mice,"[2]; tail vein 10 mg·kg^−1, Time 36 d",3
same,number of survived mice,"[2]; tail vein 10 mg·kg^−1, Time 38 d",2
same,number of survived mice,"[2]; tail vein 10 mg·kg^−1, Time 40 d",1
same,number of survived mice,"[2]; tail vein 10 mg·kg^−1, Time 42 d",0
same,number of survived mice,"[2]; tail vein 10 mg·kg^−1, Time 44 d",0
same,number of survived mice,"[2]; tail vein 10 mg·kg^−1, Time 46 d",0
same,number of survived mice,"[2]; tail vein 10 mg·kg^−1, Time 48 d",0
same,number of survived mice,"[2]; tail vein 10 mg·kg^−1, Time 50 d",0
same,number of survived mice,"[2]; tail vein 10 mg·kg^−1, Time 52 d",0
same,number of survived mice,"[2]; tail vein 10 mg·kg^−1, Time 54 d",0
same,number of survived mice,"[2]; tail vein 10 mg·kg^−1, Time 56 d",0
same,number of survived mice,"[2]; tail vein 10 mg·kg^−1, Time 58 d",0
same,number of survived mice,"[2]; tail vein 10 mg·kg^−1, Time 60 d",0
same,number of survived mice,"[2]; tail vein 10 mg·kg^−1, Time 62 d",0
same,solubility in diethyl ether and chloroform,[3],insoluble in diethyl ether and chloroform
same,solubility in methanol and ethanol,[3],soluble in methanol and ethanol
same,solubility in water,[3],poorly soluble in water
same,Relative tumor volume,"[4]; BGC-823, tail vein 10 mg·kg^1, time 1 d",166.88
same,Relative tumor volume,"[4]; BGC-823, tail vein 10 mg·kg^1, time 3 d",267.38
same,Relative tumor volume,"[4]; BGC-823, tail vein 10 mg·kg^1, time 5 d",317.96
same,Relative tumor volume,"[4]; BGC-823, tail vein 10 mg·kg^1, time 7 d",417.96
same,Relative tumor volume,"[4]; BGC-823, tail vein 10 mg·kg^1, time 9 d",717.96
same,Relative tumor volume,"[4]; BGC-823, tail vein 10 mg·kg^1, time 11 d",1340.69
same,Relative tumor volume,"[4]; BGC-823, tail vein 10 mg·kg^1, time 13 d",1636.89
same,Relative tumor volume,"[4]; BGC-823, tail vein 10 mg·kg^1, time 15 d",2034.43
same,Relative tumor volume,"[4]; BGC-823, tail vein 10 mg·kg^1, time 17 d",2034.43
same,Relative tumor volume,"[4]; BGC-823, tail vein 10 mg·kg^1, time 19 d",2034.43
same,Relative tumor volume,"[4]; BGC-823, tail vein 10 mg·kg^1, time 21 d",2034.43
same,Relative tumor volume,"[4]; BGC-823, tail vein 10 mg·kg^1, time 23 d",2034.43
same,Cell Viability,"rat C6 glioma cells; C6, C 0.001 μg/ml (Table 10)",100
same,Cell Viability,"rat C6 glioma cells; C6, C 0.003 μg/ml (Table 10)",98.82
same,Cell Viability,"rat C6 glioma cells; C6, C 0.01 μg/ml (Table 10)",92.42
same,Cell Viability,"rat C6 glioma cells; C6, C 0.03 μg/ml (Table 10)",92.03
same,Cell Viability,"rat C6 glioma cells; C6, C 0.08 μg/ml (Table 10)",94.23
same,Cell Viability,"rat C6 glioma cells; C6, C 0.25 μg/ml (Table 10)",95.43
same,Cell Viability,"rat C6 glioma cells; C6, C 0.74 μg/ml (Table 10)",92.822
same,Cell Viability,"rat C6 glioma cells; C6, C 2.22 μg/ml (Table 10)",96.16
same,Cell Viability,"rat C6 glioma cells; C6, C 6.67 μg/ml (Table 10)",95.02
same,Cell Viability,"rat C6 glioma cells; C6, C 20 μg/ml (Table 10)",89.02
"CC(C)=CCC[C@](C)(O)[C@H]1CC[C@]2(C)[C@@H]1[C@H](O)C[C@@H]1[C@@]3(C)CC[C@H](O[C@@H]4O[C@H](CO)[C@@H](O)[C@H](O)[C@H]4O)C(C)(C)[C@@H]3CC[C@]12C [Rh2, ginsenoside Rh2]",Relative tumor volume,[5]; time 0 d,100.00
same,Relative tumor volume,[5]; time 3 d,200.94
same,Relative tumor volume,[5]; time 6 d,316.69
same,Relative tumor volume,[5]; time 9 d,276.04
same,Relative tumor volume,[5]; time 12 d,400.20
same,Relative tumor volume,[5]; time 15 d,473.53
same,Relative tumor volume,[5]; time 18 d,510.20
same,Relative tumor volume,[5]; time 21 d,898.52
same,Cell Viability,"[6]; 4T1, C 0.00366 μM",104.04
same,Cell Viability,"[6]; 4T1, C 0.01097 μM",92.85
same,Cell Viability,"[6]; 4T1, C 0.03292 μM",94.47
same,Cell Viability,"[6]; 4T1, C 0.09877 μM",99.90
same,Cell Viability,"[6]; 4T1, C 0.29630 μM",98.07
same,Cell Viability,"[6]; 4T1, C 0.88889 μM",96.04
same,Cell Viability,"[6]; 4T1, C 2.66667 μM",104.25
same,Cell Viability,"[6]; 4T1, C 8.00000 μM",100.73
same,activity in vitro against human breast cancer cells (4T1),[6]; in words,low activity
same,solubility in diethyl ether and chloroform,[3],insoluble in diethyl ether and chloroform
same,solubility in methanol and ethanol,[3],soluble in methanol and ethanol
same,solubility in water,[3],poorly soluble in water
